Assay results taken from publication PMC2939063, “In Vitro and In Vivo Studies of the Trypanocidal Properties of WRR-483 against Trypanosoma cruzi” (PLoS Neglected Tropical Diseases, 2010).
“And” between values parts separate entries of the source, which are not always exact repeats. Equal entries are not always repeated.

Columns and labels:
Cathepsin C = target: T1, Cathepsin C (Homo sapiens, UniProt P53634); assay: Protease inhibition profiling (Reaction Biology Corp): Cathepsin C; assay type: biochemical
T1 construct: Reaction Biology Corp (screening service)

Cathepsin L = target: T2, Cathepsin L (Homo sapiens, UniProt P07711); assay: Protease inhibition profiling (Reaction Biology Corp): Cathepsin L; assay type: biochemical
T2 construct: Reaction Biology Corp (screening service)

[1] = Toxicology study (SRI international); conditions: in vivo; read-out: no observed adverse effect level (NOAEL)
Source text: In this study, we have identified WRR-483, as an effective agent to treat acute Chagas' disease in a murine model. […] The crystal structure of WRR-483 complexed to cruzain was solved and established the binding mode of the inhibitor to the enzyme. This structure was highlighted by the formation of a salt bridge between the guanidine moiety of the inhibitor and Glu208, but in a different conformation when compared to another structure of cruzain bound to a different arginine-containing inhibitor. […] The no observed adverse effect level (NOAEL) is higher than 100 mg/kg. […] Further studies to understand the precise mechanism of trypanocidal action of WRR-483 and design of analogs with improved bioavailability are currently underway.

Cathepsin B = target: T3, Cathepsin B (Homo sapiens, UniProt P07858); assay: Protease inhibition profiling (Reaction Biology Corp): Cathepsin B; assay type: biochemical
T3 construct: Reaction Biology Corp (screening service)

calpain-1 = target: T4, calpain-1 (Homo sapiens, UniProt P07384); assay: Protease inhibition profiling (Reaction Biology Corp): calpain-1; assay type: biochemical; conditions: panel of 70 proteases
T4 construct: Reaction Biology Corp (screening service)
T4 sequence (P07384 1-714): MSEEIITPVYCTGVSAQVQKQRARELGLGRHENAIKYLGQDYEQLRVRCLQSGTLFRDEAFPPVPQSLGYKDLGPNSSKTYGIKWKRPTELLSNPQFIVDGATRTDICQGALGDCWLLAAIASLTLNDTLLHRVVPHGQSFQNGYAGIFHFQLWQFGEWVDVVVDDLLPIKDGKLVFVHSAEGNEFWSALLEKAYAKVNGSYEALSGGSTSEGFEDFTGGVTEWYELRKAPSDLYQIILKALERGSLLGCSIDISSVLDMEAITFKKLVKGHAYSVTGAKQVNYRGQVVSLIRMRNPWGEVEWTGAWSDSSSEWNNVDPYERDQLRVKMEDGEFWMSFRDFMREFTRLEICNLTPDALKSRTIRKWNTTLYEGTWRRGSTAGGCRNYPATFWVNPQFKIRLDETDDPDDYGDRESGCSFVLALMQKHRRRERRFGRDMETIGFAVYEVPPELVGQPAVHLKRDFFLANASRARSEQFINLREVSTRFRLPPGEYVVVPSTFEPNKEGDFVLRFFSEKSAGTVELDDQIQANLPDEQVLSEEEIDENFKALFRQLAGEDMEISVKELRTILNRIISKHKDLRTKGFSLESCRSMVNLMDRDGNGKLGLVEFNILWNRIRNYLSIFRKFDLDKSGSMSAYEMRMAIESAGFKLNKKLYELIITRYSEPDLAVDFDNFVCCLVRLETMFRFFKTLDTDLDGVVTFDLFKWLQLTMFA
T4 sequence (P04632 1-268 partner): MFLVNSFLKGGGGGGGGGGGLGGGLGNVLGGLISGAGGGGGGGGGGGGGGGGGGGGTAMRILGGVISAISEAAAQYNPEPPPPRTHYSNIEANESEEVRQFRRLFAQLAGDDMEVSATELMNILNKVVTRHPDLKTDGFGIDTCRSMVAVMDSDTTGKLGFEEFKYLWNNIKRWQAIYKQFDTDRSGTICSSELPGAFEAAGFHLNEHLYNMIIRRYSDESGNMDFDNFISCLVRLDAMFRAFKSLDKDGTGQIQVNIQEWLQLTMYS

EhCP1 = conditions: cited from earlier work
Cruzain = target: T5, Cruzain (Trypanosoma cruzi, UniProt P25779); assay: Cruzain enzyme assay (acetate buffer pH 5.5, Z-Phe-Arg-AMC); assay type: biochemical; conditions: 100 mM sodium acetate pH 5.5, 5 mM DTT
T5 construct: made in house
Procedure: Cruzain[27],[28], rhodesain [29], and tbcatB [30] were recombinantly expressed as described previously. TbcatB assays were performed as described previously.[31] Cruzain (2 nM) or rhodesain (3 nM) was incubated with 0.5 to 10 µM inhibitor concentration in 100 mM sodium acetate at pH 5.5, containing 5 mM DTT (buffer A) for 5 min at room temperature. Then buffer A containing Z-Phe-Arg-AMC (Bachem, K M = 1 µM) was added to enzyme inhibitor to give 20 µM substrate concentration in 200 µL, and the increase in fluorescence (excitation at 355 nm and emission at 460 nm) was followed with an automated microtiter plate spectrofluorometer (Molecular Devices, Flex station). Inhibitor stock solutions were prepared at 20 mM in DMSO, and serial dilutions were made in DMSO (0.7% DMSO in assay). Controls were performed using enzyme alone and enzyme with DMSO. IC50 values were determined graphically using inhibitor concentrations in the linear portion of a plot of inhibition versus log[I] […]
Inhibitor dilutions which produce simple exponential progress curves over a wide range of k obs, were used to determine kinetic parameters. The value of k obs, the rate constant for loss of enzyme activity, was determined from an equation for pseudo first order dynamics using Prism 4.0 (GraphPad). When k obs varied linearly with inhibitor concentration, k ass was determined by linear regression analysis. […]

Papain = target: T6, Papain (Carica papaya, UniProt P00784); assay: Protease inhibition profiling (Reaction Biology Corp): Papain; assay type: biochemical
T6 construct: Reaction Biology Corp (screening service)
T6 sequence (P00784 134-345): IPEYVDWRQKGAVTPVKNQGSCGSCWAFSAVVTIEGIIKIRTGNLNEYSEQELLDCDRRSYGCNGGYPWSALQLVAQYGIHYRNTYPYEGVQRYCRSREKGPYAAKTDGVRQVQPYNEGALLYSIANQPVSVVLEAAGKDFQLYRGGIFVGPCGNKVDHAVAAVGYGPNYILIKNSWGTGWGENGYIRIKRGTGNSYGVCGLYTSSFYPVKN

Cathepsin V = target: T7, Cathepsin V (Homo sapiens, UniProt O60911); assay: Protease inhibition profiling (Reaction Biology Corp): Cathepsin V; assay type: biochemical; conditions: read-out: IC50, Cathepsin V
T7 construct: Reaction Biology Corp (screening service)

Cathepsin K = target: T8, Cathepsin K (Homo sapiens, UniProt P43235); assay: Protease inhibition profiling (Reaction Biology Corp): Cathepsin K; assay type: biochemical
T8 construct: Reaction Biology Corp (screening service)
T8 sequence (P43235 115-329): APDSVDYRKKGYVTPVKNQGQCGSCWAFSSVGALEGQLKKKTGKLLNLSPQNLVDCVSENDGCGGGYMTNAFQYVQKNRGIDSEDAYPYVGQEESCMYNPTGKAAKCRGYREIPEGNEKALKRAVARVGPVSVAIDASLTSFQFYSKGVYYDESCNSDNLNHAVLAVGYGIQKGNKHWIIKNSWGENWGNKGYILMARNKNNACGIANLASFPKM

T5 sequence (P25779 123-337 limits assumed): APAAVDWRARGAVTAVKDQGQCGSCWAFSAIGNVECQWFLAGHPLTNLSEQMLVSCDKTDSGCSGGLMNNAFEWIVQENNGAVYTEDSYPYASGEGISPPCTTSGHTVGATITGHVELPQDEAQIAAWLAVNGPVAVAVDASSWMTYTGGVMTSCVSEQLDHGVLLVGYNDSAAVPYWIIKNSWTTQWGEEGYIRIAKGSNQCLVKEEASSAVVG
T2 sequence (P07711 114-333, species assumed): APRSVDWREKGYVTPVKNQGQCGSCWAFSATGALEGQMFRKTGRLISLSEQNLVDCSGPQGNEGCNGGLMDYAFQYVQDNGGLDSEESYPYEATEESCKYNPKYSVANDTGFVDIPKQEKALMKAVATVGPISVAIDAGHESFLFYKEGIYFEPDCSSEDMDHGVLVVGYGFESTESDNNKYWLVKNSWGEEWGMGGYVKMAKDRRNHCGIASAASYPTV
T7 sequence (O60911 114-334, species assumed): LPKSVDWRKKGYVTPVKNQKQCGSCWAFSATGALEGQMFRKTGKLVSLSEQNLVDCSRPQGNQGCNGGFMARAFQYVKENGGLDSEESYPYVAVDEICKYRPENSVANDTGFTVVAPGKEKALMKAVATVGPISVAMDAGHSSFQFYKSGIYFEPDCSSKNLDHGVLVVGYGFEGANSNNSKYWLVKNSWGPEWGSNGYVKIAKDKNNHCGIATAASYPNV
T1 sequence (P53634 25-463, species assumed): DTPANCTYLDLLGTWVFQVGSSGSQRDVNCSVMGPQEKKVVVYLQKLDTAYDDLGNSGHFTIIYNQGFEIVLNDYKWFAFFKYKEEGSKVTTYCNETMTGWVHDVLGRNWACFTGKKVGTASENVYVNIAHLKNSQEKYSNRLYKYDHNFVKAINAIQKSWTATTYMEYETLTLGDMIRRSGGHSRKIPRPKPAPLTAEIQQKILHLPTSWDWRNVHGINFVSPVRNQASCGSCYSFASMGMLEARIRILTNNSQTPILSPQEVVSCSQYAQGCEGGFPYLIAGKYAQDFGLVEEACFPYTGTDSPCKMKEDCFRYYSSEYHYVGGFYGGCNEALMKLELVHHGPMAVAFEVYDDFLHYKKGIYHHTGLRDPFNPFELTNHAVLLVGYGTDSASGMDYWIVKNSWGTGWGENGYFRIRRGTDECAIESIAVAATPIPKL

CN1CCN(C(=O)N[C@@H](CCCNC(=N)N)C(=O)N[C@H](/C=C/S(=O)(=O)c2ccccc2)CCc2ccccc2)CC1 [WRR-483]
IC50 (Cathepsin C): 0.007 ± 0.0009 µM | IC50 (Cathepsin L): 0.053 ± 0.004 µM | NOAEL [1]: > 100 mg/kg | IC50 (Cathepsin B): 0.0039 ± 0.0001 µM | inhibition of calpain-1 (calpain-1): no inhibition | inhibition of EhCP1 (EhCP1): potent inhibitor | k obs/[I] at 1 µM, Cruzain (Cruzain): 4,800 s^-1 M^-1 and 4,800±480 s^-1 M^-1 | IC50 (Papain): 0.373 ± 0.044 µM | IC50 (Cathepsin V): 0.335 ± 0.004 µM | IC50, Cathepsin K (Cathepsin K): No inhibition
